Assays:
Assay in all cases: KiNativ profiling in H3255 cells
Format in all cases: cell-based, human
BRAF, BRAF V600E = test system: T1, BRAF, BRAF V600E; conditions: 2.5 µM; Lys2; DLKSNNIFLHEDLTVK
T1 construct: purchased ActivX Biosciences (KiNativ)
Procedure: (§1) H3255 cells were plated with 6.5x10^6 per condition in fresh media in 15 cm plates and treated the 80% confluency for 2 hours with DMSO or 2.5 μM of ZNL-0056. To harvest cells, plates were washed 3 times with cold PBS, then collected by scraping into 4 mL of cold PBS containing protease and phosphatase inhibitors. Cells were pelleted by centrifugation at 1350 g at 4 ℃ for 5 minutes and immediately frozen in liquid nitrogen. The frozen samples were sent to ActivX Biosciences (La Jolla, CA) for the remainder of the KiNativ profiling experiment4. […]

CDK4 = test system: T2, CDK4; conditions: 2.5 µM; Lys2; DLKPENILVTSGGTVK
T2 construct: purchased ActivX Biosciences (KiNativ)
Procedure: as §1

CDK6 = test system: T3, CDK6; conditions: 2.5 µM; Lys2; DLKPQNILVTSSGQIK
T3 construct: purchased ActivX Biosciences (KiNativ)
Procedure: as §1

CHK1 = test system: T4, CHK1; conditions: 2.5 µM; Lys2; DIKPENLLLDER
T4 construct: purchased ActivX Biosciences (KiNativ)
Procedure: as §1

CK1g1 = test system: T5, CK1g1; conditions: 2.5 µM; Lys2; DVKPENFLIGR
T5 construct: purchased ActivX Biosciences (KiNativ)
Procedure: as §1

CLK2 = test system: T6, CLK2; conditions: 2.5 µM; Lys2; LTHTDLKPENILFVNSDYELTYNLEK
T6 construct: purchased ActivX Biosciences (KiNativ)
Procedure: as §1

CaMK2g = test system: T7, CaMK2g; conditions: 2.5 µM; Lys1; TSTQEYAAKIINTK
T7 construct: purchased ActivX Biosciences (KiNativ)
Procedure: as §1

EphA1 = test system: T8, EphA1; conditions: 2.5 µM; Activation Loop; LLDDFDGTYETQGGKIPIR
T8 construct: purchased ActivX Biosciences (KiNativ)
Procedure: as §1

FAK = test system: T9, FAK; conditions: 2.5 µM
T9 construct: purchased ActivX Biosciences (KiNativ)
Procedure: as §1

FER = test system: T10, FER; conditions: 2.5 µM
T10 construct: purchased ActivX Biosciences (KiNativ)
Procedure: as §1

FRAP = test system: T11, FRAP; conditions: 2.5 µM; ATP; IQSIAPSLQVITSKQRPR
T11 construct: purchased ActivX Biosciences (KiNativ)
Procedure: as §1

HER3/ErbB3 = test system: T12, HER3/ErbB3; conditions: 2.5 µM
T12 construct: purchased ActivX Biosciences (KiNativ)
Procedure: as §1

HRI = test system: T13, HRI; conditions: 2.5 µM; Activation Loop; IGDFGLACTDILQKNTDWTNR
T13 construct: purchased ActivX Biosciences (KiNativ)
Procedure: as §1

IKKe, TBK1 = conditions: 2.5 µM; Lys2; DIKPGNIMR
Procedure: as §1

IRAK1 = test system: T14, IRAK1; conditions: 2.5 µM; Lys2; AIQFLHQDSPSLIHGDIKSSNVLLDER
T14 construct: purchased ActivX Biosciences (KiNativ)
Procedure: as §1

LYN = test system: T15, LYN; conditions: 2.5 µM
T15 construct: purchased ActivX Biosciences (KiNativ)
Procedure: as §1

MAP2K1, MAP2K2 = conditions: 2.5 µM
Procedure: as §1

MAP3K15, MAP3K5, MAP3K6 = conditions: 2.5 µM; Lys1; IAIKEIPER
Procedure: as §1

MAP3K2 = test system: T16, MAP3K2; conditions: 2.5 µM; Lys1; ELAVKQVQFDPDSPETSKEVNALECEIQLLK
T16 construct: purchased ActivX Biosciences (KiNativ)
Procedure: as §1

MARK2, MARK3 = conditions: 2.5 µM; Lys2; DLKAENLLLDADMNIK
Procedure: as §1

MLK3 = test system: T17, MLK3; conditions: 2.5 µM; Lys2; DLKSNNILLLQPIESDDMEHK
T17 construct: purchased ActivX Biosciences (KiNativ)
Procedure: as §1

NEK6, NEK7 = conditions: 2.5 µM; Lys2; DIKPANVFITATGVVK
Procedure: as §1

PCTAIRE1, PCTAIRE3 = conditions: 2.5 µM; Lys2; DLKPQNLLINER
Procedure: as §1

PIK3C2B = test system: T18, PIK3C2B; conditions: 2.5 µM; ATP; VIFKCGDDLRQDMLTLQMIR
T18 construct: purchased ActivX Biosciences (KiNativ)
Procedure: as §1

RON = test system: T19, RON; conditions: 2.5 µM; Lys1; IQCAIKSLSR
T19 construct: purchased ActivX Biosciences (KiNativ)
Procedure: as §1

[1] = test system: RSK1 domain1, RSK2 domain1, RSK3 domain1; conditions: 2.5 µM; Lys2; DLKPENILLDEEGHIK
Procedure: as §1

SBK = test system: T20, SBK; conditions: 2.5 µM; Lys2; DIKPENVLLFDR
T20 construct: purchased ActivX Biosciences (KiNativ)
Procedure: as §1

TAK1 = test system: T21, TAK1; conditions: 2.5 µM; Lys2; DLKPPNLLLVAGGTVLK
T21 construct: purchased ActivX Biosciences (KiNativ)
Procedure: as §1

TLK1 = test system: T22, TLK1; conditions: 2.5 µM
T22 construct: purchased ActivX Biosciences (KiNativ)
Procedure: as §1

ULK3 = test system: T23, ULK3; conditions: 2.5 µM; Lys1; EVVAIKCVAK
T23 construct: purchased ActivX Biosciences (KiNativ)
Procedure: as §1

Wee1 = test system: T24, Wee1; conditions: 2.5 µM; Lys2; YIHSMSLVHMDIKPSNIFISR
T24 construct: purchased ActivX Biosciences (KiNativ)
Procedure: as §1

p38a = test system: T25, p38a; conditions: 2.5 µM
T25 construct: purchased ActivX Biosciences (KiNativ)
Procedure: as §1

[2] = Lys1, CIGEGQFGDVHQGIYMSPENPALAVAIKTCK
[3] = Activation Loop, QEDGGVYSSSGLKQIPIK
[4] = Activation Loop, SPSQVQVADFGVADLLPPDDKQLLYSEAKTPIK
[5] = Activation Loop, EGAKFPIKWTAPEAINFGCFTIK
[6] = Lys2, YLNEIKPPIIHYDLKPGNILLVDGTACGEIK

**Q.** Which results are given for `C=CC(=O)Nc1cc(C(=O)Nc2nc3cccc(C)c3n2[C@@H]2CCCCN(C(=O)C=C)C2)cs1` [ZNL-0056]?
**A.** Inhibition (BRAF, BRAF V600E): 4.5%; Inhibition (CDK4): -13.0%; Inhibition (CDK6): -27.5%; Inhibition (CHK1): -8.1%; Inhibition (CK1g1): 16.6%; Inhibition (CLK2): 9.5%; Inhibition (CaMK2g): -27.3%; Inhibition (EphA1): -5.3%; Inhibition (FAK; Activation Loop, YMEDSTYYKASK): -16.1%; Inhibition (FAK; [2]): -40.2%; Inhibition (FER; [3]): -11.1%; Inhibition (FER; Lys1, TSVAVKTCKEDLPQELK): -6.4%; Inhibition (FRAP): -27.2%; Inhibition (HER3/ErbB3; [4]): 25.6%; Inhibition (HER3/ErbB3; Lys1, GVWIPEGESIKIPVCIKVIEDK): -12.4%; Inhibition (HRI): 6.7%; Inhibition (IKKe, TBK1): 1.9%; Inhibition (IRAK1): 21.6%; Inhibition (LYN; [5]): -13.3%; Inhibition (LYN; Lys1, VAVKTLKPGTMSVQAFLEEANLMK): -8.7%; Inhibition (MAP2K1, MAP2K2; Lys1, KLIHLEIKPAIR): 9.8%; Inhibition (MAP2K1, MAP2K2; Lys2, DVKPSNILVNSR): -6.7%; Inhibition (MAP3K15, MAP3K5, MAP3K6): -7.9%; Inhibition (MAP3K2): 12.2%; Inhibition (MARK2, MARK3): 9.0%; Inhibition (MLK3): 26.8%; Inhibition (NEK6, NEK7): 0.45%; Inhibition (PCTAIRE1, PCTAIRE3): -3.3%; Inhibition (PIK3C2B): -9.6%; Inhibition (RON): -9.0%; Inhibition [1]: -1.0%; Inhibition (SBK): 9.6%; Inhibition (TAK1): 10.2%; Inhibition (TLK1; Lys1, YAAVKIHQLNK): 31.3%; Inhibition (TLK1; [6]): 13.1%; Inhibition (ULK3): -7.8%; Inhibition (Wee1): 13.4%; Inhibition (p38a; Lys2, DLKPSNLAVNEDCELK): -10.4%; Inhibition (p38a; Other, QELNKTIWEVPER): -5.0%

**Q.** `C=CC(=O)Nc1cc(Nc2nccc(-c3cn(C)c4ccccc34)n2)c(OC)cc1N(C)CCN(C)C` [Osimertinib, osimertinib, reference compound] was tested. Which Inhibition (BRAF, BRAF V600E) did it give?
**A.** Its Inhibition is -9.2%.

**Q.** And the Inhibition (CDK4)?
**A.** Its Inhibition is -1.3%.

**Q.** And the Inhibition (CDK6)?
**A.** The Inhibition was -8.5%.

**Q.** And the Inhibition (CHK1)?
**A.** Its Inhibition is 15.0%.

**Q.** And the Inhibition (CK1g1)?
**A.** The Inhibition was 7.6%.

**Q.** What about the Inhibition (CLK2) of the same molecule?
**A.** The Inhibition was 26.6%.

**Q.** And the Inhibition (CaMK2g)?
**A.** Its Inhibition is -34.8%.

**Q.** And the Inhibition (EphA1)?
**A.** Its Inhibition is 5.8%.

**Q.** What about the Inhibition (FAK; Activation Loop, YMEDSTYYKASK) of the same molecule?
**A.** Its Inhibition is -25.6%.

**Q.** What about the Inhibition (FAK; [2]) of the same molecule?
**A.** Its Inhibition is 16.5%.

**Q.** What about the Inhibition (FER; [3]) of the same molecule?
**A.** The Inhibition was 28.7%.

**Q.** And the Inhibition (FER; Lys1, TSVAVKTCKEDLPQELK)?
**A.** The Inhibition was -15.4%.

**Q.** And the Inhibition (FRAP)?
**A.** The Inhibition was -39.1%.

**Q.** What about the Inhibition (HER3/ErbB3; [4]) of the same molecule?
**A.** Its Inhibition is -24.2%.

**Q.** What about the Inhibition (HER3/ErbB3; Lys1, GVWIPEGESIKIPVCIKVIEDK) of the same molecule?
**A.** The Inhibition was -64.6%.

**Q.** And the Inhibition (HRI)?
**A.** Its Inhibition is -4.0%.

**Q.** What about the Inhibition (IKKe, TBK1) of the same molecule?
**A.** Its Inhibition is -9.4%.

**Q.** And the Inhibition (IRAK1)?
**A.** The Inhibition was -50.3%.

**Q.** What about the Inhibition (LYN; [5]) of the same molecule?
**A.** Its Inhibition is 7.2%.

**Q.** What about the Inhibition (LYN; Lys1, VAVKTLKPGTMSVQAFLEEANLMK) of the same molecule?
**A.** The Inhibition was -3.5%.

**Q.** What about the Inhibition (MAP2K1, MAP2K2; Lys1, KLIHLEIKPAIR) of the same molecule?
**A.** The Inhibition was -64.7%.

**Q.** What about the Inhibition (MAP2K1, MAP2K2; Lys2, DVKPSNILVNSR) of the same molecule?
**A.** The Inhibition was -10.5%.

**Q.** And the Inhibition (MAP3K15, MAP3K5, MAP3K6)?
**A.** The Inhibition was -10.0%.

**Q.** What about the Inhibition (MAP3K2) of the same molecule?
**A.** Its Inhibition is -20.3%.

**Q.** And the Inhibition (MARK2, MARK3)?
**A.** The Inhibition was -12.0%.

**Q.** What about the Inhibition (MLK3) of the same molecule?
**A.** The Inhibition was -1.5%.

**Q.** And the Inhibition (NEK6, NEK7)?
**A.** The Inhibition was -8.8%.

**Q.** What about the Inhibition (PCTAIRE1, PCTAIRE3) of the same molecule?
**A.** The Inhibition was 8.7%.

**Q.** What about the Inhibition (PIK3C2B) of the same molecule?
**A.** Its Inhibition is 1.3%.

**Q.** And the Inhibition (RON)?
**A.** Its Inhibition is 8.9%.

**Q.** And the Inhibition [1]?
**A.** The Inhibition was -33.3%.

**Q.** What about the Inhibition (SBK) of the same molecule?
**A.** The Inhibition was -14.3%.

**Q.** What about the Inhibition (TAK1) of the same molecule?
**A.** The Inhibition was -9.8%.

**Q.** What about the Inhibition (TLK1; Lys1, YAAVKIHQLNK) of the same molecule?
**A.** Its Inhibition is -53.3%.

**Q.** And the Inhibition (TLK1; [6])?
**A.** Its Inhibition is 7.2%.

**Q.** And the Inhibition (ULK3)?
**A.** The Inhibition was -21.6%.

**Q.** And the Inhibition (Wee1)?
**A.** Its Inhibition is 6.4%.

**Q.** And the Inhibition (p38a; Lys2, DLKPSNLAVNEDCELK)?
**A.** The Inhibition was 19.9%.

**Q.** What about the Inhibition (p38a; Other, QELNKTIWEVPER) of the same molecule?
**A.** The Inhibition was 12.6%.
